Laboratory results published in article PMC2760403 (The Journal of organic chemistry, 2009).

What was measured:
Format in all cases: biochemical
[1] = target: M. tuberculosis Lumazine Synthase (Mycobacterium tuberculosis, UniProt P9WHE9); settings: recombinant M. tuberculosis LS; for kcat (rate constant ES → E + P): fit of the compound's data set; for kcat (rate constant ES → E + P) / Kis (inhibitor dissociation constant, ES + I ⇌ ESI): pH 7.0; for Kis (inhibitor dissociation constant, ES + I ⇌ ESI): substrate 1 varied, 2 constant
[2] = target: M. tuberculosis Riboflavin Synthase (Mycobacterium tuberculosis, UniProt P9WK35); assay: Riboflavin synthase kinetic inhibition assay; settings: recombinant M. tuberculosis RS; for kcat (rate constant ES → E + P): fit of the compound's data set; for kcat (rate constant ES → E + P) / Kis (inhibitor dissociation constant, ES + I ⇌ ESI): pH 7.0
[3] = target: T1, S. pombe Lumazine Synthase (Schizosaccharomyces pombe, UniProt Q9UUB1); assay: Lumazine synthase kinetic inhibition assay; settings: recombinant S. pombe LS; for kcat (rate constant ES → E + P): fit of the compound's data set; for kcat (rate constant ES → E + P) / Kis (inhibitor dissociation constant, ES + I ⇌ ESI): pH 7.0; for Kis (inhibitor dissociation constant, ES + I ⇌ ESI): substrate 1 varied, 2 constant
T1 sequence (Q9UUB1 1-159): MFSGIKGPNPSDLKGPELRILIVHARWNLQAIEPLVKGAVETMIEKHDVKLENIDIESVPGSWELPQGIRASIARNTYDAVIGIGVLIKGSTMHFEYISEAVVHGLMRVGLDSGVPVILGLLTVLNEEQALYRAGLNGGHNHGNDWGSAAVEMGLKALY

[4] = target: E. coli Riboflavin Synthase (Escherichia coli, UniProt P0AFU8); assay: Riboflavin synthase kinetic inhibition assay; settings: recombinant E. coli RS; for kcat (rate constant ES → E + P): fit of the compound's data set; for kcat (rate constant ES → E + P) / Kis (inhibitor dissociation constant, ES + I ⇌ ESI): pH 7.0
E. coli Riboflavin Synthase, sequence (P0AFU8 whole entry): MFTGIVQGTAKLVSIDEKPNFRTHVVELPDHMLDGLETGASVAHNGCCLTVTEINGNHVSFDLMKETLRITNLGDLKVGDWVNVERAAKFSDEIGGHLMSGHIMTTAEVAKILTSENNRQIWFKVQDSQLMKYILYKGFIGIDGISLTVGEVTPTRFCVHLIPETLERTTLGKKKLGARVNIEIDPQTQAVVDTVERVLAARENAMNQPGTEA

M. tuberculosis Lumazine Synthase, sequence (P9WHE9 whole entry): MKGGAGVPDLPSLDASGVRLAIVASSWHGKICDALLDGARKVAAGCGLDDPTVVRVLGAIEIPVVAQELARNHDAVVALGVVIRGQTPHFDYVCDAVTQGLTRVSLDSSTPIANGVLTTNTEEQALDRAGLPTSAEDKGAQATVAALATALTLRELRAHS
M. tuberculosis Riboflavin Synthase, sequence (P9WK35 whole entry): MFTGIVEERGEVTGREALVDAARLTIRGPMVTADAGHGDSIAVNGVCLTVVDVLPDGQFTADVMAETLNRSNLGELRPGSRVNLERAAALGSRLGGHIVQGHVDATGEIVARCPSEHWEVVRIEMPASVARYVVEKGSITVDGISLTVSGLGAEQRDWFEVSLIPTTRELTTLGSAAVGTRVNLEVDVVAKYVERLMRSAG

Compound | Mode of inhibition [1] | kcat (rate constant ES → E + P) [1] | Mode of inhibition [2] | kcat (rate constant ES → E + P) [2] | Kis (inhibitor dissociation constant, ES + I ⇌ ESI) [2] | Mode of inhibition [3] | kcat (rate constant ES → E + P) [3] | Inhibitory activity in words [3] | Inhibitory activity in words [4] | Kis (inhibitor dissociation constant, ES + I ⇌ ESI) [1] | Kis (inhibitor dissociation constant, ES + I ⇌ ESI) [3] | Mode of inhibition [4] | kcat (rate constant ES → E + P) [4] | Kis (inhibitor dissociation constant, ES + I ⇌ ESI) [4]
O=c1[nH]c(/C=C/c2ccccc2O)c([N+](=O)[O-])c(=O)[nH]1 [Compound 9, (E)-5-Nitro-6-(2-hydroxystyryl)pyrimidine-2,4(1H,3H)-dione] | Competitive | 0.00433 ± 0.00017 s⁻¹ | Uncompetitive | 0.0683 ± 0.0033 s⁻¹ | 917 ± 212 µM | Competitive | 0.023 ± 0.0005 s⁻¹ | – | – | – | – | – | – | –
O=c1[nH]c(/C=C/c2cccc(O)c2)c([N+](=O)[O-])c(=O)[nH]1 [Compound 15, (E)-6-(3-Hydroxystyryl)-5-nitropyrimidine-2,4(1H,3H)-dione] | Competitive | 0.00383 ± 0.00017 s⁻¹ | – | – | – | – | – | completely ineffective | completely ineffective | – | – | – | – | –
O=c1[nH]c(/C=C/c2ccc(O)cc2)c([N+](=O)[O-])c(=O)[nH]1 [Compound 16, (E)-6-(4-Hydroxystyryl)-5-nitropyrimidine-2,4(1H,3H)-dione] | Partial | 0.00717 ± 0.00017 s⁻¹ | – | – | – | – | – | completely ineffective | completely ineffective | 17 ± 5 µM | – | – | – | –
O=c1[nH]c(/C=C/c2cccc(O)c2O)c([N+](=O)[O-])c(=O)[nH]1 [Compound 17, (E)-6-(2,3-Dihydroxystyryl)-5-nitropyrimidine-2,4(1H,3H)-dione] | Mixed | 0.006 ± 0.00017 s⁻¹ | Partial | 0.0045 ± 0.00033 s⁻¹ | 37 ± 16 µM | Partial | 0.0262 ± 0.00033 s⁻¹ | – | – | 81 ± 29 µM | 16 ± 3 µM | Mixed | 0.085 ± 0.0017 s⁻¹ | 26 ± 4 µM
O=c1[nH]c(/C=C/c2cc(O)ccc2O)c([N+](=O)[O-])c(=O)[nH]1 [Compound 18, (E)-6-(2,5-Dihydroxystyryl)-5-nitropyrimidine-2,4(1H,3H)-dione] | Uncompetitive | 0.00283 ± 0.00017 s⁻¹ | Uncompetitive | 0.00367 ± 0.00033 s⁻¹ | 398 ± 156 µM | Uncompetitive | 0.0245 ± 0.00067 s⁻¹ | – | – | 420 ± 168 µM | 53 ± 5 µM | Uncompetitive | 0.085 ± 0.0017 s⁻¹ | 122 ± 10 µM
O=c1[nH]c(/C=C/c2ccc(F)cc2)c([N+](=O)[O-])c(=O)[nH]1 [Compound 29, (E)-6-(4-Fluorostyryl)-5-nitropyrimidine-2,4(1H,3H)-dione] | Mixed | 0.0065 ± 0.00033 s⁻¹ | Mixed | 0.00667 ± 0.00017 s⁻¹ | 776 ± 294 µM | – | – | – | – | 25 ± 8 µM | – | – | – | –
O=c1[nH]c(/C=C/c2cc([N+](=O)[O-])ccc2O)c([N+](=O)[O-])c(=O)[nH]1 [Compound 32, (E)-6-(2-Hydroxy-5-nitrostyryl)-5-nitropyrimidine-2,4(1H,3H)-dione] | Competitive | 0.0107 ± 0.0005 s⁻¹ | Uncompetitive | 0.00783 ± 0.00017 s⁻¹ | 800 ± 107 µM | – | – | – | – | – | – | – | – | –
O=c1[nH]c(/C=C/c2ccc([N+](=O)[O-])c(O)c2)c([N+](=O)[O-])c(=O)[nH]1 [Compound 35, (E)-6-(3-Hydroxy-4-nitrostyryl)-5-nitropyrimidine-2,4(1H,3H)-dione] | Competitive | 0.00633 ± 0.00017 s⁻¹ | – | – | – | Mixed | 0.0188 ± 0.00017 s⁻¹ | – | – | – | 497 ± 159 µM | Uncompetitive | 0.0717 ± 0.0017 s⁻¹ | 224 ± 22 µM
O=c1[nH]c(/C=C/c2ccc[nH]2)c([N+](=O)[O-])c(=O)[nH]1 [Compound 40, (E)-5-Nitro-6-[2-(1H-pyrrol-2-yl)vinyl]pyrimidine-2,4(1H,3H)-dione] | Partial | 0.00633 ± 0.00017 s⁻¹ | – | – | – | Mixed | 0.0173 ± 0.00017 s⁻¹ | – | – | 42 ± 12 µM | 248 ± 67 µM | Mixed | 0.06 ± 0.0017 s⁻¹ | 806 ± 401 µM
O=c1[nH]c(/C=C/c2ccc3ccccc3c2)c([N+](=O)[O-])c(=O)[nH]1 [Compound 43, (E)-6-(2-(Naphthalene-2-yl)vinyl)-5-nitropyrimidine-2,4(1H,3H)-dione] | Partial | 0.00617 ± 0.00017 s⁻¹ | – | – | – | Mixed | 0.043 ± 0.00033 s⁻¹ | – | – | 72 ± 31 µM | 476 ± 89 µM | Uncompetitive | 0.0553 ± 0.00083 s⁻¹ | 270 ± 32 µM
O=c1[nH]c(/C=C/C2C=Nc3ccccc32)c([N+](=O)[O-])c(=O)[nH]1 (centres unmarked) [Compound 44, (E)-6-(2-(3H-Indol-3-yl)vinyl)-5-nitropyrimidine-2,4(1H,3H)-dione] | Mixed | 0.00667 ± 0.00017 s⁻¹ | – | – | – | Mixed | 0.0327 ± 0.00067 s⁻¹ | – | – | 488 ± 233 µM | 376 ± 127 µM | Uncompetitive | 0.0567 ± 0.00067 s⁻¹ | 426 ± 64 µM
O=c1[nH]c(CCc2ccc(O)cc2)c([N+](=O)[O-])c(=O)[nH]1 [Compound 48, 6-(4-Hydroxy-2-phenethyl)-5-nitropyrimidine-2,4(1H,3H)-dione] | – | – | Uncompetitive | 0.00567 ± 0.00017 s⁻¹ | 449 ± 45 µM | – | – | – | – | – | – | – | – | –
